# In PubChem BioAssay (NCI):
# Values joined by “and” are separate entries in the source; they are usually repeats but may differ in a detail not shown here. Equal values may be shown once.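 Assay format: 96-well plates, 48-hour exposure. Abbreviation: GI50, concentration required for 50% inhibition of growth. TGI is the concentration that stops growth completely.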
# Columns and labels:
# Test in all cases: NCI anticancer screen, dose series, 48 h
# OVCAR-4 ovarian = test system: OVCAR-4 ovarian
# MOLT-4 leukemia = test system: MOLT-4 leukemia
# HCC-2998 colon = test system: HCC-2998 colon
# SNB-19 CNS = test system: SNB-19 CNS
# MDA-MB-231 breast = test system: MDA-MB-231 breast
# T-47D breast = test system: T-47D breast
# 786-0 renal = test system: 786-0 renal
# UACC-62 melanoma = test system: UACC-62 melanoma
# SR leukemia = test system: SR leukemia
# HOP-62 NSCLC = test system: HOP-62 NSCLC
Compound,GI50 (OVCAR-4 ovarian) [µM],TGI (OVCAR-4 ovarian) [µM],GI50 (MOLT-4 leukemia) [µM],TGI (MOLT-4 leukemia),GI50 (HCC-2998 colon),TGI (HCC-2998 colon),GI50 (SNB-19 CNS),TGI (SNB-19 CNS) [µM],GI50 (MDA-MB-231 breast),TGI (MDA-MB-231 breast),GI50 (T-47D breast) [µM],TGI (T-47D breast),GI50 (786-0 renal),TGI (786-0 renal) [µM],GI50 (UACC-62 melanoma) [µM],TGI (UACC-62 melanoma) [µM],GI50 (SR leukemia) [µM],TGI (SR leukemia),GI50 (HOP-62 NSCLC),TGI (HOP-62 NSCLC)
COc1cccc(/C=C\C(=O)c2ccccc2)c1,10.8,27,6.1,> 100 µM,8.72 µM,25.7 µM,7.68 µM,24.4,17.1 µM,36.2 µM,9.72,41.3 µM,15 µM,34.2,13.3,29,8.89,> 100 µM,20.2 µM,42.1 µM
CCc1ccc([OH2+])c(C(=O)[O-])c1.CCc1ccc([OH2+])c(C(=O)[O-])c1.CCc1ccc([OH2+])c(C(=O)[O-])c1.CCc1ccc([OH2+])c(C(=O)[O-])c1.[Cu+2].[Cu+2],28.3,> 100,34.2,> 100 µM,64.8 µM,> 100 µM,36.8 µM,> 61.8,> 100 µM,> 100 µM,> 100,> 100 µM,> 100 µM,> 100,70.5,> 100,24.5,> 100 µM,> 100 µM,> 100 µM
CC1(C)C2CC(=O)C1(C)C(OCc1ccccc1)C2Br (configuration not stated),–,–,–,51.2 µM and 49.9 µM,27.7 µM and 98.6 µM,69.3 µM and > 100 µM,47.2 µM and > 100 µM,> 100,18.5 µM and > 100 µM,42.9 µM and > 100 µM,–,77.9 µM and > 100 µM,46.5 µM and > 100 µM,> 100,–,> 100,–,52.8 µM and 66.1 µM,16.3 µM and 54.3 µM,33.9 µM and > 100 µM
Cc1[nH]c2c(C)c3c([nH]c4ccc(Cl)cc43)c(C)c2c(=O)c1C,–,> 64.1,–,8.44 µM,–,16.5 µM,–,> 100,–,7.54 µM,–,16.8 µM,–,33,–,> 88.3,–,8.19 µM,–,19.8 µM
COC(=O)[C@]12CC[C@@H](C)[C@H](C)[C@@H]1C1=CC[C@@H]3[C@@]4(C)C[C@@H](OC(C)=O)[C@H](OC(C)=O)[C@@](C)(COC(C)=O)[C@@H]4[C@H](O)C[C@@]3(C)[C@]1(C)CC2,3.21,> 100,0.901,11.5 µM,2.81 µM,> 100 µM,3.54 µM,> 100,1.91 µM,> 100 µM,1.03,8.04 µM,1.8 µM,> 100,–,–,0.465,9.4 µM,3.25 µM,> 100 µM
COc1ccc(/C=C\c2cc(OC)c(OC)c(OC)c2)cc1NC(=O)/C=C/c1cc(OC)c(OC)c(OC)c1,6.77,> 100,8.52,> 100 µM,3.73 µM,> 100 µM,5.64 µM,> 100,7.81 µM,> 100 µM,5.01,> 100 µM,5.43 µM,> 100,2.8,> 100,0.854,> 100 µM,4.62 µM,> 100 µM
Nc1nc(SCC#CCCl)c2[nH]cnc2n1,4.32,67.4,4.11,30.2 µM,5.85 µM,18.9 µM,10.5 µM,23.2,6.26 µM,21.4 µM,5.26,21.1 µM,4.3 µM,14.9,5.46,18.1,3.15,18.9 µM,9.94 µM,24.3 µM
